pEC50: −log10 of the molar value.
Experiments:
GPR40 [1] = biological target: T1, GPR40 (Homo sapiens, UniProt O14842); test: Cell-based aequorin assay (CHO cells stably expressing GPR40 and aequorin); design: expressed in transfected cells; host or cells: CHO cells stably transfected with GPR40 and aequorin; settings: activation of human GPR40, CHO cells, 0.01% HSA
Method in brief: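 CHO cells stably co-expressing GPR40 and aequorin, loaded with coelenterazine (1 ug/mL, 2 h, room temperature) in H/HBSS with 20 mM Hepes and 0.01% fatty acid-free HSA. Serially diluted compounds added; luminescence recorded over 20 s. EC50 from dose-response of maximum relative light units.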

GPR40 [2] = biological target: T1, GPR40; test: Inositol phosphate accumulation assay (A9_GPR40 cells); type: cell-based; design: expressed in transfected cells; host or cells: CHO cells stably transfected with GPR40 and aequorin; settings: inositol phosphate assay, A9_GPR40 cells, 1 hour; read-out: IP3 EC50
Method in brief: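 A9 cells stably expressing GPR40 were labelled 16 h with 1 μCi/mL ^3H-inositol in inositol-free DMEM with dialysed FBS. Compounds in HBSS/10 mM LiCl with HSA were applied for 1 h at 37° C, then quenched with 20 mM formic acid. Accumulated [^3H] inositol phosphates were counted by SPA.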

T1 sequence (O14842 whole entry): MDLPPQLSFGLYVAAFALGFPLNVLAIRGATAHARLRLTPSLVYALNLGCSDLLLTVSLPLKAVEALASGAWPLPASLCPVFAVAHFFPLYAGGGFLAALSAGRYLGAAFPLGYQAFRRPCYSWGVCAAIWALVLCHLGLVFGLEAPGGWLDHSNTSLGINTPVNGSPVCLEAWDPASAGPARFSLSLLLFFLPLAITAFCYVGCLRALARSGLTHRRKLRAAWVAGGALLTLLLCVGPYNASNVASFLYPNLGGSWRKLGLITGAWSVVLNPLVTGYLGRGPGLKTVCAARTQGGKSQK

## COc1ccc(F)c(-c2ccc(COc3cccc([C@@H](CC(=O)O)C(F)(F)F)c3)cc2C(C)(C)C)c1 (single isomer, unassigned) [Example 6, (3R)-3-(3-(((2-(1,1-Dimethylethyl)-2′-fluoro-5′-(methyloxy)-1,1′-biphenyl-4-yl)methyl)oxy)phenyl)-4,4,4-trifluorobutanoic acid or (3S)-3-(3-(((2-(1,1-dimethylethyl)-2′-fluoro-5′-(methyloxy)-1,1′-biphenyl-4-yl)methyl)oxy)phenyl)-4,4,4-trifluorobutanoic acid]
GPR40 [1]
  pEC50: 5.00 to 6.00
GPR40 [2]
  pEC50: < 6.00

## CCC(CC(=O)O)c1cccc(OCc2ccc(-c3cc(OC)ccc3F)c(C(C)C(C)(C)C)c2)c1F (single isomer, unassigned) [Example 77.5]
GPR40 [1]
  pEC50: 6.00 to 7.00
GPR40 [2]
  pEC50: > 8.00

## COc1ccc(F)c(-c2ccc(COc3cccc([C@@H](CC(=O)O)C4CC4)c3)cc2C(C)(C)C)c1 (single isomer, unassigned) [Example 8, (3S)-3-Cyclopropyl-3-(3-(((2-(1,1-dimethylethyl)-2′-fluoro-5′-(methyloxy)-1,1′-biphenyl-4-yl)methyl)oxy)phenyl)propanoic acid or (3R)-3-cyclopropyl-3-(3-(((2-(1,1-dimethylethyl)-2′-fluoro-5′-(methyloxy)-1,1′-biphenyl-4-yl)methyl)oxy)phenyl)propanoic acid]
GPR40 [1]
  pEC50: 6.00 to 7.00
GPR40 [2]
  pEC50: 6.00 to 7.00

## CC[C@H](CC(=O)O)c1cccc(OCc2ccc(-c3cc(OC)ccc3F)c([C@H]3CCCC3(C)C)c2)c1 (single isomer, unassigned) [Example 78.4]
GPR40 [1]
  pEC50: 7.00 to 8.00
GPR40 [2]
  pEC50: > 8.00

## COc1ccc(F)c(-c2ccc(COc3cccc([C@@H](CC(=O)O)CC4CC4)c3)cc2C(C)C(C)C)c1 (single isomer, unassigned) [Example 69.12, (3R)-4-Cyclopropyl-3-(3-(((2-(1,2-dimethylpropyl)-2′-fluoro-5′-(methyloxy)-1,1′-biphenyl-4-yl)methyl)oxy)phenyl)butanoic acid or (3S)-4-cyclopropyl-3-(3-(((2-(1,2-dimethylpropyl)-2′-fluoro-5′-(methyloxy)-1,1′-biphenyl-4-yl)methyl)oxy)phenyl)butanoic acid]
GPR40 [1]
  pEC50: 6.00 to 7.00
GPR40 [2]
  pEC50: > 8.00

## COc1ccc(F)c(-c2cc(F)c(COc3cccc(C(CC(=O)O)CC4CC4)c3)cc2C2CCCC2(C)C)c1 (single isomer, unassigned) [Example 69.34]
GPR40 [1]
  pEC50: 6.00 to 7.00
GPR40 [2]
  pEC50: > 8.00

## COc1ccc(F)c(-c2ccc(COc3cccc(C(CC(=O)O)C4CC4)c3)cc2C2CCCCCC2)c1 (single isomer, unassigned) [Example 66.2, (3S)-3-(3-(((2-Cycloheptyl-2′-fluoro-5′-(methyloxy)-1,1′-biphenyl-4-yl)methyl)oxy)phenyl)-3-cyclopropylpropanoic acid or (3R)-3-(3-(((2-cycloheptyl-2′-fluoro-5′-(methyloxy)-1,1′-biphenyl-4-yl)methyl)oxy)phenyl)-3-cyclopropylpropanoic acid]
GPR40 [1]
  pEC50: 6.00 to 7.00
GPR40 [2]
  pEC50: 7.00 to 8.00

## CCC(CC(=O)O)c1cccc(OCc2ccc(-c3cc(OC)ccc3F)c(C3CCCCC3(C)C)c2)c1F (single isomer, unassigned) [Example 77.8]
GPR40 [1]
  pEC50: 6.00 to 7.00
GPR40 [2]
  pEC50: > 8.00

## COc1ccc(F)c(-c2ccc(COc3cccc(C(CC(=O)O)CC4CC4)c3)cc2C(OC)C(C)(C)C)c1 (single isomer, unassigned) [Example 69.35]
GPR40 [1]
  pEC50: 7.00 to 8.00
GPR40 [2]
  pEC50: > 8.00

## COc1ccc(F)c(-c2ccc(COc3cccc(C(C)CC(=O)O)c3)cc2C2=CCC(C(C)(C)C)CC2)c1 (single isomer, unassigned) [Example 64.13, (3R)-3-(3-(((2-(4-(1,1-Dimethylethyl)-1-cyclohexen-1-yl)-2′-fluoro-5′-(methyloxy)-1,1′-biphenyl-4-yl)methyl)oxy)phenyl)butanoic acid or (3S)-3-(3-(((2-(4-(1,1-dimethylethyl)-1-cyclohexen-1-yl)-2′-fluoro-5′-(methyloxy)-1,1′-biphenyl-4-yl)methyl)oxy)phenyl)butanoic acid]
GPR40 [1]
  pEC50: 6.00 to 7.00
GPR40 [2]
  pEC50: 7.00 to 8.00

## CCC(CC(=O)O)c1cccc(OCc2ccc(-c3cc(OC)ccc3F)c(C(C)(C)C)c2)c1F (single isomer, unassigned) [Example 77.2, (3R)-3-(3-(((2-(1,1-Dimethylethyl)-2′-fluoro-5′-(methyloxy)-1,1′-biphenyl-4-yl)methyl)oxy)-2-fluorophenyl)pentanoic acid or (3S)-3-(3-(((2-(1,1-dimethylethyl)-2′-fluoro-5′-(methyloxy)-1,1′-biphenyl-4-yl)methyl)oxy)-2-fluorophenyl)pentanoic acid]
GPR40 [1]
  pEC50: 6.00 to 7.00
GPR40 [2]
  pEC50: 6.00 to 7.00

## COc1cc(-c2ccc(COc3cccc(C(C)(C)CC(=O)O)c3)cc2C2CCCC2(C)C)c(F)cn1 (single isomer, unassigned) [Example 85.4, 3-{3-[3-((S)-2,2-Dimethyl-cyclopentyl)-4-(5-fluoro-2-methoxy-pyridin-4-yl)-benzyloxy]-phenyl}-3-methyl-butyric acid or 3-{3-[3-((R)-2,2-dimethyl-cyclopentyl)-4-(5-fluoro-2-methoxy-pyridin-4-yl)-benzyloxy]-phenyl}-3-methyl-butyric acid]
GPR40 [1]
  pEC50: 6.00 to 7.00
GPR40 [2]
  pEC50: 7.00 to 8.00

## CCC(CC(=O)O)c1cccc(OCc2ccc(-c3cc(OC)ncc3F)c(C(OC)C(C)(C)C)c2)c1F (single isomer, unassigned) [Example 77.10]
GPR40 [1]
  pEC50: 6.00 to 7.00
GPR40 [2]
  pEC50: > 8.00

## CC1(C)CCC=C1c1cc(COc2cccc([C@@H](CC(=O)O)C3CC3)c2)ccc1-c1cc(C(F)F)ccc1F (single isomer, unassigned) [Example 66.50, (3S)-3-Cyclopropyl-3-(3-(((5′-(difluoromethyl)-2-(5,5-dimethyl-1-cyclopenten-1-yl)-2′-fluoro-1,1′-biphenyl-4-yl)methyl)oxy)phenyl)propanoic acid or (3R)-3-cyclopropyl-3-(3-(((5′-(difluoromethyl)-2-(5,5-dimethyl-1-cyclopenten-1-yl)-2′-fluoro-1,1′-biphenyl-4-yl)methyl)oxy)phenyl)propanoic acid]
GPR40 [1]
  pEC50: 6.00 to 7.00
GPR40 [2]
  pEC50: 6.00 to 7.00

## COc1ccc(F)c(-c2ccc(COc3cccc(C(CC(=O)O)C4CC4)c3F)cc2C(C)C(C)(C)C)c1 (single isomer, unassigned) [Example 83.6]
GPR40 [1]
  pEC50: 6.00 to 7.00
GPR40 [2]
  pEC50: > 8.00

## COc1ccc(F)c(-c2ccc(COc3cccc([C@@H](CC(=O)O)C4CC4)c3F)cc2[C@H](OC)C(C)(C)OC)c1 (single isomer, unassigned) [Example 83.26]
GPR40 [1]
  pEC50: 6.00 to 7.00
GPR40 [2]
  pEC50: 7.00 to 8.00

## COc1cc(-c2cc(F)c(COc3cccc(C(C)(C)CC(=O)O)c3)cc2C2CCCC2(C)C)c(F)cn1 (single isomer, unassigned) [Example 85.5, 3-(3-(((5-((1S)-2,2-Dimethylcyclopentyl)-2-fluoro-4-(5-fluoro-2-(methyloxy)-4-pyridinyl)phenyl)methyl)oxy)phenyl)-3-methylbutanoic acid or 3-(3-(((5-((1R)-2,2-dimethylcyclopentyl)-2-fluoro-4-(5-fluoro-2-(methyloxy)-4-pyridinyl)phenyl)methyl)oxy)phenyl)-3-methylbutanoic acid]
GPR40 [1]
  pEC50: 6.00 to 7.00
GPR40 [2]
  pEC50: 7.00 to 8.00

## C=CC1(c2cc(COc3cccc([C@@H](CC(=O)O)C4CC4)c3)ccc2-c2cc(OC)ncc2F)CCCC1 (single isomer, unassigned) [Example 66.67, (3S)-3-(3-(4-(5-Fluoro-2-methoxypyridin-4-yl)-3-(1-vinylcyclopentyl)benzyloxy)phenyl)-3-cyclopropylpropanoic acid or (3R)-3-(3-(4-(5-fluoro-2-methoxypyridin-4-yl)-3-(1-vinylcyclopentyl)benzyloxy)phenyl)-3-cyclopropylpropanoic acid]
GPR40 [1]
  pEC50: 6.00 to 7.00
GPR40 [2]
  pEC50: 7.00 to 8.00

## CCC(CC(=O)O)c1cccc(OCc2ccc(-c3cc(OC)ncc3F)c(C(O)(C(C)(C)C)C(C)(C)C)c2)c1F (single isomer, unassigned) [Example 77.11, (3R)-3-(3-(4-(5-Fluoro-2-methoxypyridin-4-yl)-3-(3-hydroxy-2,2,4,4-tetramethylpentan-3-yl)benzyloxy)-2-fluorophenyl)pentanoic acid or (3R)-3-(3-(4-(5-fluoro-2-methoxypyridin-4-yl)-3-(3-hydroxy-2,2,4,4-tetramethylpentan-3-yl)benzyloxy)-2-fluorophenyl)pentanoic acid]
GPR40 [1]
  pEC50: 6.00 to 7.00
GPR40 [2]
  pEC50: > 8.00

## CCC[C@H](CC(=O)O)c1cccc(OCc2ccc(-c3cc(OC)ccc3F)c(C3=CCCC3(C)C)c2)c1 (single isomer, unassigned) [Example 59, (3R)-3-(3-(((2-(5,5-Dimethyl-1-cyclopenten-1-yl)-2′-fluoro-5′-(methyloxy)-1,1′-biphenyl-4-yl)methyl)oxy)phenyl)hexanoic acid or (3S)-3-(3-(((2-(5,5-dimethyl-1-cyclopenten-1-yl)-2′-fluoro-5′-(methyloxy)-1,1′-biphenyl-4-yl)methyl)oxy)phenyl)hexanoic acid]
GPR40 [1]
  pEC50: 6.00 to 7.00
GPR40 [2]
  pEC50: 7.00 to 8.00

## CC1(C)CCC[C@@H]1c1cc(COc2cccc([C@@H](CC(=O)O)C3CC3)c2)ccc1-c1cccc(OC(F)F)c1 (single isomer, unassigned) [Example 66.11]
GPR40 [1]
  pEC50: 6.00 to 7.00
GPR40 [2]
  pEC50: 7.00 to 8.00

Source: patent US8030354B2, “Substituted biphenyl GPR40 modulators” (Amgen Inc., priority 2007, dated 2011)
